Measured values published in PubChem BioAssay (NCI).
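Method: 48-hour compound exposure of cells in 96-well plates, five concentrations, linear interpolation of endpoints. TGI is the concentration that stops growth completely.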

What was measured:
Assay in all cases: NCI tumour cell line growth inhibition, 48 h
[1] = tested on: SR leukemia
[2] = tested on: M14 melanoma
[3] = tested on: ACHN renal
[4] = tested on: UACC-62 melanoma
[5] = tested on: SNB-75 CNS
[6] = tested on: DLD-1 colon
[7] = tested on: 786-0 renal
[8] = tested on: OVCAR-3 ovarian
[9] = tested on: EKVX NSCLC
[10] = tested on: SK-MEL-5 melanoma
[11] = tested on: HCC-2998 colon
[12] = tested on: RPMI-8226 leukemia
[13] = tested on: K-562 leukemia
[14] = tested on: HT29 colon
[15] = tested on: SN12C renal
[16] = tested on: OVCAR-8 ovarian
[17] = tested on: SF-295 CNS
[18] = tested on: LXFL 529 NSCLC
[19] = tested on: OVCAR-5 ovarian
[20] = tested on: HOP-92 NSCLC
[21] = tested on: DMS 273 small cell lung
[22] = tested on: SF-539 CNS
[23] = tested on: NCI-H23 lung
[24] = tested on: HL-60(TB) leukemia
[25] = tested on: M19-MEL melanoma
[26] = tested on: OVCAR-4 ovarian
[27] = tested on: MALME-3M melanoma
[28] = tested on: SK-MEL-28 melanoma
[29] = tested on: COLO 205 colon
[30] = tested on: A498 renal
[31] = tested on: UO-31 renal
[32] = tested on: HOP-18 NSCLC
[33] = tested on: HCT-15 colon
[34] = tested on: HOP-62 NSCLC
[35] = tested on: LOX IMVI melanoma
[36] = tested on: IGROV1 ovarian
[37] = tested on: UACC-257 melanoma
[38] = tested on: CAKI-1 renal
[39] = tested on: SK-OV-3 ovarian
[40] = tested on: SW-620 colon
[41] = tested on: KM12 colon
[42] = tested on: RXF-631 renal
[43] = tested on: HCT-116 colon
[44] = tested on: NCI-H226 lung
[45] = tested on: CCRF-CEM leukemia
[46] = tested on: A549 NSCLC
[47] = tested on: MOLT-4 leukemia
[48] = tested on: NCI-H522 lung
[49] = tested on: SNB-78 CNS
[50] = tested on: U251 CNS
[51] = tested on: TK-10 renal
[52] = tested on: NCI-H460 lung
[53] = tested on: DMS 114 small cell lung
[54] = tested on: SNB-19 CNS
[55] = tested on: SK-MEL-2 melanoma
[56] = tested on: XF 498 CNS
[57] = tested on: KM20L2 colon
[58] = tested on: RXF 393 renal
[59] = tested on: SF-268 CNS

Measured: TGI

O=c1[nH]ccc2c1ccn2C1CC(O)C(CO)O1 (stereo unspecified)
not listed: [56] | [57] | [58] | [59]
> 100 µM: all other assays above

O=C(CC1(O)C(=O)Nc2ccccc21)c1ccc2ccccc2c1 (stereo unspecified)
not listed: [1] | [32] | [41] | [45] | [50]
> 100 µM: all other assays above

O=C(NC1C(O)C(O)C(CO)OC1n1cc(F)c(=O)[nH]c1=O)OCc1ccccc1 (stereo unspecified)
not listed: [4] | [7] | [8] | [9] | [13] | [16] | [22] | [25] | [31] | [36] | [47] | [56]
> 100 µM: all other assays above
